Source: patent publication US20250205344A1, “2,4-DIOXOTETRAHYDROPYRIMIDINYL DERATIVES AS DEGRONS IN PROTACS” (GLAXOSMITHKLINE INTELLECTUAL PROPERTY DEVELOPMENT LIMITED, priority 2022, published 2025)
Structures can show the parent of a compound that is named as a salt.

Biological target: T1, Androgen Receptor (Homo sapiens, UniProt P10275, T878A)
T1 construct: the AR gene was modified, using CRISPR/Cas9 editing, so the expressed AR protein included an 11 amino acid HiBiT tag; endogenous in cells; host or cells: clonal LnCaP-derived line, AR gene edited by CRISPR/Cas9
Test: Androgen Receptor Degradation Assay (Nano-Glo HiBiT)
Format: cell-based
Conditions: LNCaP, 18 h, HiBiT-tagged AR in human LnCaP cells, read-out: mean asymptote max
How it was run: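 LnCaP cells with CRISPR-knocked-in N-terminal HiBiT-tagged AR (10,000/well) treated 18 h at 37 °C with PROTACs over 11 threefold concentrations; lytic HiBiT luminescence normalised to DMSO (0%) and cell-free (100%) controls. Relative DC50 = 4-parameter fit inflection; absolute DC50 = 50% degradation interpolation; Dmax = maximum observed degradation.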

T1 sequence (P10275 whole entry T878A): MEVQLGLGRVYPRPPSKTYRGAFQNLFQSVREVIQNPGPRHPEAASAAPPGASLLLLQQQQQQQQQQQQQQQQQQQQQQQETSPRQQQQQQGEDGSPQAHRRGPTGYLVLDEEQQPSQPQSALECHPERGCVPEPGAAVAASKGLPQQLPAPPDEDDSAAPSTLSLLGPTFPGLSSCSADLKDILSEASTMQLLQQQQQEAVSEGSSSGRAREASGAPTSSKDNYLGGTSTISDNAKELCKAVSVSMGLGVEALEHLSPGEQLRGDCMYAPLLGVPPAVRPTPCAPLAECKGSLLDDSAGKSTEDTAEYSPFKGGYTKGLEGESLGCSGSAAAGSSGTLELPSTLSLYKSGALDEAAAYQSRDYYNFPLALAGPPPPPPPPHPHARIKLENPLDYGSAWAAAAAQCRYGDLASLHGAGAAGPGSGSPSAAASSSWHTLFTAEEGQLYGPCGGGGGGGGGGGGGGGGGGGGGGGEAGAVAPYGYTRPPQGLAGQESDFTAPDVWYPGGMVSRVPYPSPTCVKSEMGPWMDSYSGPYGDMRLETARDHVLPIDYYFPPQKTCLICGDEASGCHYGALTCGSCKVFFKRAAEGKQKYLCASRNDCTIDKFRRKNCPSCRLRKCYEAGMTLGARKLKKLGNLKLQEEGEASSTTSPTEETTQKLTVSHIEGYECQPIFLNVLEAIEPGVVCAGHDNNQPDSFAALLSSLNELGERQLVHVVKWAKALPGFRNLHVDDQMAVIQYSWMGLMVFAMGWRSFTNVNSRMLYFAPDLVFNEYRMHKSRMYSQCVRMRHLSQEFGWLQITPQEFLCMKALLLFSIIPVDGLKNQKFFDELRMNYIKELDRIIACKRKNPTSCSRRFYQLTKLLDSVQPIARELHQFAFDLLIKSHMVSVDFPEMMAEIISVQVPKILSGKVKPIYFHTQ
T1 sequence (Q96SW2 whole entry partner): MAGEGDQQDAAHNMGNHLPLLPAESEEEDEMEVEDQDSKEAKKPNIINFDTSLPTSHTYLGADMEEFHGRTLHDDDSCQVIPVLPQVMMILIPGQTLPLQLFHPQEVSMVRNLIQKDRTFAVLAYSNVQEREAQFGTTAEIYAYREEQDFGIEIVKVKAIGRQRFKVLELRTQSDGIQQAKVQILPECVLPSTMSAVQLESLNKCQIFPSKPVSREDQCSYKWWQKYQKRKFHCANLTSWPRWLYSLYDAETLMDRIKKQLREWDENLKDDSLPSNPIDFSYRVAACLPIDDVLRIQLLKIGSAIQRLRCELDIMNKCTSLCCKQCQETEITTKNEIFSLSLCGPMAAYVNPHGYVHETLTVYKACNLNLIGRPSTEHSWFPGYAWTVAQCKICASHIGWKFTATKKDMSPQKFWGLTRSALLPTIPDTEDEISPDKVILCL
T1 sequence (Q16531 whole entry partner): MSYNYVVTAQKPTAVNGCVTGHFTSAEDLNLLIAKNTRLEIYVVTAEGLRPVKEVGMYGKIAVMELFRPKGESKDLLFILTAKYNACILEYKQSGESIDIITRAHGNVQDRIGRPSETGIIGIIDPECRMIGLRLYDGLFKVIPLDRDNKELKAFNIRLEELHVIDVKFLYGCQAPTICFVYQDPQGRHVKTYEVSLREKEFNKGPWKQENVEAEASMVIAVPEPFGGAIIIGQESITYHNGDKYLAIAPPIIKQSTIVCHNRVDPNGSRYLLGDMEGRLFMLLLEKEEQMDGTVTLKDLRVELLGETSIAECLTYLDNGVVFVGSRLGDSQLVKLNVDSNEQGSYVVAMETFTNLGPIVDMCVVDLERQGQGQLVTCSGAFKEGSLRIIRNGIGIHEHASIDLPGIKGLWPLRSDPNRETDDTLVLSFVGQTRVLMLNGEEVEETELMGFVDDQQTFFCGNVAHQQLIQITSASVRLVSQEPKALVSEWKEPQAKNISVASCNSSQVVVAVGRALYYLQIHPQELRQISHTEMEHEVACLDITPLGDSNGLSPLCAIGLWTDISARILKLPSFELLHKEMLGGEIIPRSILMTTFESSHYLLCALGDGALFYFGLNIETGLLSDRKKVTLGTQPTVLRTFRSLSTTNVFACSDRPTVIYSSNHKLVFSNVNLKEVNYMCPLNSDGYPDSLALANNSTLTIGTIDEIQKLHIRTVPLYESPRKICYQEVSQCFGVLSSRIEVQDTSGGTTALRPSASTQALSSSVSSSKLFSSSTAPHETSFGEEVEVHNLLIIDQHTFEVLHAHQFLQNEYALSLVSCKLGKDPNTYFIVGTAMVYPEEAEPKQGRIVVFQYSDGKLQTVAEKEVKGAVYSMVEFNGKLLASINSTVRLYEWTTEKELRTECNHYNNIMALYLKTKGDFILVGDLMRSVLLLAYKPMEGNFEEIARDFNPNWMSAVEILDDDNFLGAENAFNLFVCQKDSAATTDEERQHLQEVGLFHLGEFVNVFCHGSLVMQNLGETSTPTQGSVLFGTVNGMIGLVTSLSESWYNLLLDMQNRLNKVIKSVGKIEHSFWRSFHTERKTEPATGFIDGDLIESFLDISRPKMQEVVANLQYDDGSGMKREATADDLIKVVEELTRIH

Dmax [%] | Structure (SMILES)
≥ 50 | N#Cc1ccc(O[C@H]2CC[C@H](NC(=O)c3ccc(N4CCC(CN5CCC(n6ccc7c(N8CCC(=O)NC8=O)nccc76)CC5)CC4)nn3)CC2)cc1C(F)(F)F [EAR204, N-((1r,4r)-4-(4-Cyano-3-(trifluoromethyl)phenoxy)cyclohexyl)-6-(4-((4-(4-(2,4-dioxotetrahydropyrimidin-1(2H)-yl)-1H-pyrrolo[3,2-c]pyridin-1-yl)piperidin-1-yl)methyl)piperidin-1-yl)pyridazine-3-carboxamide]
≥ 50 | N#Cc1ccc(O[C@H]2CC[C@H](NC(=O)c3ccc(OCCCN4CCC(n5ccc6c(N7CCC(=O)NC7=O)cccc65)CC4)cn3)CC2)cc1Cl [EAR62, N-((1r,4r)-4-(3-Chloro-4-cyanophenoxy)cyclohexyl)-5-(3-(4-(4-(2,4-dioxotetrahydropyrimidin-1(2H)-yl)-1H-indol-1-yl)piperidin-1-yl)propoxy)picolinamide]
≥ 50 | N#Cc1ccc(O[C@H]2CC[C@H](NC(=O)c3cnc(N4CCC(CN5CCC(n6ccc7c(N8CCC(=O)NC8=O)ncnc76)CC5)CC4)nc3)CC2)cc1Cl [EAR200, N-((1r,4r)-4-(3-Chloro-4-cyanophenoxy)cyclohexyl)-2-(4-((4-(4-(2,4-dioxotetrahydropyrimidin-1(2H)-yl)-7H-pyrrolo[2,3-d]pyrimidin-7-yl)piperidin-1-yl)methyl)piperidin-1-yl)pyrimidine-5-carboxamide hydrochloride]
≥ 50 | N#Cc1ccc(O[C@H]2CC[C@H](NC(=O)c3cnc(N4CCC(CN5CCC(n6ccc7c(N8CCC(=O)NC8=O)nccc76)CC5)CC4)cn3)CC2)cc1C(F)(F)F [EAR181, N-((1r,4r)-4-(4-Cyano-3-(trifluoromethyl)phenoxy)cyclohexyl)-5-(4-((4-(4-(2,4-dioxotetrahydropyrimidin-1(2H)-yl)-1H-pyrrolo[3,2-c]pyridin-1-yl)piperidin-1-yl)methyl)piperidin-1-yl)pyrazine-2-carboxamide]
≥ 50 | CC(C)n1ccc2c(N3CCC(=O)NC3=O)cc(C(=O)N3CCC4(CCCN(Cc5ccc(C(=O)N[C@H]6CC[C@H](Oc7ccc(C#N)c(Cl)c7)CC6)cc5)C4)CC3)cc21 [EAR81, N-((1r,4r)-4-(3-Chloro-4-cyanophenoxy)cyclohexyl)-4-((9-(4-(2,4-dioxotetrahydropyrimidin-1(2H)-yl)-1-isopropyl-1H-indole-6-carbonyl)-2,9-diazaspiro[5.5]undecan-2-yl)methyl)benzamide]
≥ 50 | CC1(CN2CCC(n3ncc4c(N5CCC(=O)NC5=O)cccc43)CC2)CN(c2ccc(C(=O)N[C@H]3CC[C@H](Oc4ccc(C#N)c(Cl)c4)CC3)nn2)C1 [EAR240, N-((1r,4r)-4-(3-chloro-4-cyanophenoxy)cyclohexyl)-6-(3-((4-(4-(2,4-dioxotetrahydropyrimidin-1(2H)-yl)-1H-indazol-1-yl)piperidin-1-yl)methyl)-3-methylazetidin-1-yl)pyridazine-3-carboxamide]
≥ 50 | N#Cc1ccc(O[C@H]2CC[C@H](NC(=O)c3ccc(N4CCC(CN5CC[C@@H](n6ccc7c(N8CCC(=O)NC8=O)cccc76)C5)CC4)nn3)CC2)cc1Cl [EAR172, N-((1r,4r)-4-(3-Chloro-4-cyanophenoxy)cyclohexyl)-6-(4-(((S)-3-(4-(2,4-dioxotetrahydropyrimidin-1(2H)-yl)-1H-indol-1-yl)pyrrolidin-1-yl)methyl)piperidin-1-yl)pyridazine-3-carboxamide, hydrochloride]
≥ 50 | N#Cc1ccc(O[C@H]2CC[C@H](NC(=O)c3ccc(N4CCC(CN5CCC(n6ncc7c(N8CCC(=O)NC8=O)c(F)ccc76)CC5)CC4)nn3)CC2)cc1Cl [EAR140, N-((1r,4r)-4-(3-Chloro-4-cyanophenoxy)cyclohexyl)-6-(4-((4-(4-(2,4-dioxotetrahydropyrimidin-1(2H)-yl)-5-fluoro-1H-indazol-1-yl)piperidin-1-yl)methyl)piperidin-1-yl)pyridazine-3-carboxamide, hydrochloride]
≥ 50 | N#Cc1ccc(O[C@H]2CC[C@H](NC(=O)c3ccc(N4CCO[C@H](CN5CCC(n6ccc7c(N8CCC(=O)NC8=O)cccc76)CC5)C4)nn3)CC2)cc1Cl [EAR123, N-((1r,4R)-4-(3-Chloro-4-cyanophenoxy)cyclohexyl)-6-((R)-2-((4-(4-(2,4-dioxotetrahydropyrimidin-1(2H)-yl)-1H-indol-1-yl)piperidin-1-yl)methyl)morpholino)pyridazine-3-carboxamide]
≥ 50 | CC1(C)CC(CN2CCC(n3ncc4c(N5CCC(=O)NC5=O)cccc43)CC2)CN(c2ccc(C(=O)N[C@H]3CC[C@H](Oc4ccc(C#N)c(Cl)c4)CC3)nn2)C1 (stereo partly drawn) [EAR223, N-((1r,4r)-4-(3-chloro-4-cyanophenoxy)cyclohexyl)-6-(5-((4-(4-(2,4-dioxotetrahydropyrimidin-1(2H)-yl)-1H-indazol-1-yl)piperidin-1-yl)methyl)-3,3-dimethylpiperidin-1-yl)pyridazine-3-carboxamide]
≥ 50 | N#Cc1ccc(O[C@H]2CC[C@H](NC(=O)c3ccc(N4CC5(CCC(CN6CCC(n7ncc8c(N9CCC(=O)NC9=O)cccc87)CC6)CO5)C4)nn3)CC2)cc1Cl (stereo partly drawn) [EAR218, N-((1r,4r)-4-(3-Chloro-4-cyanophenoxy)cyclohexyl)-6-(7-((4-(4-(2,4-dioxotetrahydropyrimidin-1(2H)-yl)-1H-indazol-1-yl)piperidin-1-yl)methyl)-5-oxa-2-azaspiro[3.5]nonan-2-yl)pyridazine-3-carboxamide]
≥ 50 | N#Cc1ccc(O[C@H]2CC[C@H](NC(=O)c3ccc(N4CC[C@H](CN5CCC(n6ncc7c(N8CCC(=O)NC8=O)cccc76)CC5)C4)nn3)CC2)cc1Cl [EAR238, N-((1r,4R)-4-(3-chloro-4-cyanophenoxy)cyclohexyl)-6-((R)-3-((4-(4-(2,4-dioxotetrahydropyrimidin-1(2H)-yl)-1H-indazol-1-yl)piperidin-1-yl)methyl)pyrrolidin-1-yl)pyridazine-3-carboxamide]
≥ 50 | N#Cc1ccc(O[C@H]2CC[C@H](NC(=O)c3ccc(N4CCC(CN5CCC(n6ncc7c(N8CCC(=O)NC8=O)ccnc76)CC5)CC4)nn3)CC2)cc1C(F)(F)F [EAR210, N-((1r,4r)-4-(4-Cyano-3-(trifluoromethyl)phenoxy)cyclohexyl)-6-(4-((4-(4-(2,4-dioxotetrahydropyrimidin-1(2H)-yl)-1H-pyrazolo[3,4-b]pyridin-1-yl)piperidin-1-yl)methyl)piperidin-1-yl)pyridazine-3-carboxamide]
≥ 50 | N#Cc1ccc(O[C@H]2CC[C@H](NC(=O)c3ccc(N4CCC(CN5CCC(n6ccc7c(N8CCC(=O)NC8=O)cncc76)CC5)CC4)nc3)CC2)cc1C(F)(F)F [AR19, N-((1r,4r)-4-(4-Cyano-3-(trifluoromethyl)phenoxy)cyclohexyl)-6-(4-((4-(4-(2,4-dioxotetrahydropyrimidin-1(2H)-yl)-1H-pyrrolo[2,3-c]pyridin-1-yl)piperidin-1-yl)methyl)piperidin-1-yl)nicotinamide]

Structure (SMILES) | Dmax [%]
CC1(C)C(=O)N(c2ccc(C#N)c(C(F)(F)F)c2)C(=S)N1c1ccc(N2CCC(CCN3CCC(n4ncc5c(N6CCC(=O)NC6=O)cncc54)CC3)CC2)cc1 [EAR97, 4-(3-(4-(4-(2-(4-(4-(2,4-Dioxotetrahydropyrimidin-1(2H)-yl)-1H-pyrazolo[3,4-c]pyridin-1-yl)piperidin-1-yl)ethyl)piperidin-1-yl)phenyl)-4,4-dimethyl-5-oxo-2-thioxoimidazolidin-1-yl)-2-(trifluoromethyl)benzonitrile formate] | ≥ 50
